Consider two compounds from the supplement of paper PMC11061612.

Experiment in all cases: combination Emax (second highest fraction inhibited in the dose matrix, 72 h); higher = more inhibition; extreme values may be limits of the assay
The subject of assay [1] is AMO-1 (Plasma Cell Myeloma). In short, it runs like this:
(§1)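 Cell lines grown in DMEM/F12 or RPMI with 10% FBS were plated in 1536-well plates and held 24 hours at 37°C, 5% CO2 before 72 hours of exposure to two-drug dose matrices, with DMSO typically at 0.2%. CellTiter-Glo 2.0 luminescence gave viability, which was converted to inhibition. Vehicle wells were set to 0 and blank wells to 1. Combination Emax is the second-highest inhibition in the matrix, and Bliss excess is the observed combination effect minus the expected EA + EB − EA·EB, where EA and EB are the single-agent effects.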

The test system of assay [2] is C-4-I (Cervical Carcinoma). A digest of the protocol: as §1
For assay [3], the system named is Ca9-22 (Head and Neck Carcinoma). A digest of the protocol:
as §1

In assay [4] the test system is Caov-4 (Ovarian Carcinoma). A digest of the protocol:
as §1

In another assay the test system is D-263MG (Glioblastoma). In short, it runs like this:
as §1

Assay [5] has as its system EFM-19 (Breast Carcinoma). A digest of the protocol: as §1
In assay [6] the test system is LU-65 (Non-Small Cell Lung Carcinoma). In short, it runs like this: as §1
For assay [7], the system named is MIA-PaCa-2 (Pancreatic Carcinoma). A digest of the protocol: as §1
For assay [8], the system named is MLMA (Other Blood Carcinomas). A digest of the protocol:
as §1

The subject of assay [9] is NEC8 (Other Solid Carcinomas). In short, it runs like this: as §1
The subject of assay [10] is NUGC-3 (Gastric Carcinoma). In short, it runs like this:
as §1

The test system of assay [11] is OSC-20 (Oral Cavity Carcinoma). A digest of the protocol:
as §1

The subject of assay [12] is PANC-04-03 (Pancreatic Carcinoma). In short, it runs like this:
as §1

Another assay concerns PWR-1E (Non-Cancerous). In short, it runs like this:
as §1

Assay [13] concerns SU8686 (Pancreatic Carcinoma). In short, it runs like this:
as §1

Assay [14] relates to SW13 (Other Solid Carcinomas). A digest of the protocol:
as §1

Another assay deals with TGW (Neuroblastoma). A digest of the protocol: as §1
The next assay has as its system TK10 (Kidney Carcinoma). In short, it runs like this:
as §1

The test system of assay [15] is VA-ES-BJ (Other Solid Carcinomas). A digest of the protocol:
as §1

The next assay relates to YH-13 (Glioblastoma). A digest of the protocol: as §1

For the compound `CC1(C)CCC(CN2CCN(c3ccc(C(=O)NS(=O)(=O)c4ccc(NCC5CCOCC5)c([N+](=O)[O-])c4)c(Oc4cnc5[nH]ccc5c4)c3)CC2)=C(c2ccc(Cl)cc2)C1` [Venetoclax] + Cc1cc2ncnn2cc1Nc1ncc2c(n1)n(C1CCOCC1)c(=O)n2C [AZD7648] (first compound max 1 µM, 7x7, partner max 10 µM), the “combination Emax” value in assay [1] stood at 0.73; in assay [2] it was 0.222; in [3], 0.128; in assay [4] it was 0.263; in the assay on D-263MG (Glioblastoma), 0.179; in [5], 0.417. In addition, the “combination Emax” value was found to be 0.378 in assay [6]; 0.269 in [7]; 0.86 in assay [8]; 0.205 in assay [9]; 0.409 in [10]; 0.205 in [11]. Further, the “combination Emax” value in assay [12] came out at 0.286; in the assay on PWR-1E (Non-Cancerous), 0.164; in [13], 0.152; in assay [14], 0.302; with TGW (Neuroblastoma), 0.393; in the assay on TK10 (Kidney Carcinoma), 0.281. Also, the “combination Emax” value in assay [15] came out at 0.233; in the assay on YH-13 (Glioblastoma), 0.3.
With `CC1(C)CCC(CN2CCN(c3ccc(C(=O)NS(=O)(=O)c4ccc(NCC5CCOCC5)c([N+](=O)[O-])c4)c(Oc4cnc5[nH]ccc5c4)c3)CC2)=C(c2ccc(Cl)cc2)C1` [Venetoclax] + Cn1cnc2c(F)c(Nc3ccc(Br)cc3Cl)c(C(=O)NOCCO)cc21 [Selumetinib] (first compound max 1 µM, 7x7, partner max 3 µM), the “combination Emax” value stood at 0.806 in assay [1]; 0.385 in assay [2]; 0.222 in [3]; 0.364 in assay [4]; 0.119 in the assay on D-263MG (Glioblastoma); 0.232 in [5]. Moreover, the “combination Emax” value was 0.538 in assay [6]; 0.403 in assay [7]; 0.93 in assay [8]; 0.104 in assay [9]; 0.392 in assay [10]; 0.172 in assay [11]. Besides, the “combination Emax” value was 0.354 in assay [12]; 0.0808 in the assay with PWR-1E (Non-Cancerous); 0.135 in assay [13]; 0.317 in [14]; 0.337 in the assay on TGW (Neuroblastoma); 0.322 with TK10 (Kidney Carcinoma). Also, the figures for the “combination Emax” value (in [15]; in the assay with YH-13 (Glioblastoma)) were 0.123 and 0.181, respectively.
